Test results taken from patent US6864056B1 (priority 2000, dated 2005).

Test system: dAU6 NH3 oligonucleotide substrate
Format: biochemical

**Q.** gelonin was tested. Which “level of activity (fluorescence normalized with negative control, FIG. 3)” value did it give?
**A.** highest level of activity
